Source: the supplement of paper PMC11208160

Experiment: recombinant UMI read abundance after kanamycin selection (control-corrected) (log10(CPM+1)); higher = more efficient recombination; extreme values may be limits of the assay; sequences stand for … in AGTGCAGAGAAAATCGGCCAGTTTTCTCTGCCTGCAGTCCGCATGCCGTGGGACCCCTTGGGTTCTAACCTGTTGCCTAGATTTATGCAGCGGACTGCCTTTCTCCCAAAGTGATAAACCGG…AGGTTGGTTTCACT; site = the 11-nt donor
In short: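 In a pooled Escherichia coli screen for the IS621 bridge recombinase, donor and donor-binding-loop pairs were each placed with a 12-nt UMI on a plasmid bearing a promoterless kanamycin gene. This library was co-electroporated with a target plasmid encoding a fixed target and T7-inducible recombinase, and cells were plated either on IPTG (0.07 mM) plus kanamycin or without selection, in two replicates each. Recombinant UMIs were PCR-amplified across the donor–target junction and sequenced, and counts were converted to CPM, averaged over replicates, scaled by control-derived factors and reported as log10(CPM+1).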
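Also: IS621 bridge recombinase in Escherichia coli cells against a fixed T5 target plasmid.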

| Sequence | recombinant UMI read abundance (log10) |
| --- | --- |
| CCAAGCACATGGACCGGTTTTCCCGGTAATCCGTATTTGCT (site CCAAGCACTAG) | 0.32 |
| TGAAGTCCATGGACCGGTTTTCCCGGTAATCCGTATTTGTA (site TCAAGTCCTTA) | 1.44 |
| GCTACCGCATGGACCGGTTTTCCCGGTAATCCGTATTTGCA (site GCTACCGCTTG) | 2.13 |
| TAGGAATCATGGACCGGTTTTCCCGGTAATCCGTATTTGCT (site TAGGAATCTCG) | 1.1 |
| CGTTTGGCATGGACCGGTTTTCCCGGTAATCCGTATTTGAT (site CGTTTGGCTAA) | 0.0113 |
| CCCGGTCCATGGACCGGTTTTCCCGGTAATCCGTATTTGCC (site CCCGGTCCTTG) | 0.00573 |
| TATTTGGCATGGACCGGTTTTCCCGGTAATCCGTATTTGTG (site TACTTGGCTCA) | 0.00946 |
| TCACGAACATGGACCGGTTTTCCCGGTAATCCGTATTTGTC (site GCACGAACTGA) | 0 |
| CTACTCTCATGGACCGGTTTTCCCGGTAATCCGTATTTGTA (site CTACTCTCTTA) | 3.26 |
| GTATGCACATGGACCGGTTTTCCCGGTAATCCGTATTTGTA (site GTATGAACTTA) | 0.66 |
| TGTTCCCCATGGACCGGTTTTCCCGGTAATCCGTATTTGTA (site TGTTACCCTTA) | 0.177 |
| GCAGTCGCATGGACCGGTTTTCCCGGTAATCCGTATTTGCG (site GTAGTCGCTCG) | 0.0117 |
| TAACGGCCATGGACCGGTTTTCCCGGTAATCCGTATTTGAA (site TAACGGCCTTT) | 0.00367 |
| CTGCTACCATGGACCGGTTTTCCCGGTAATCCGTATTTGAT (site CTGCTACCTAC) | 0.00934 |
| GGTAATCCATGGACCGGTTTTCCCGGTAATCCGTATTTGTT (site GGTAATCCTAA) | 0.518 |
| GATTGGTCATGGACCGGTTTTCCCGGTAATCCGTATTTGAC (site GATTGGTCTGT) | 0 |
| CCTTGAGCATGGACCGGTTTTCCCGGTAATCCGTATTTGTA (site CCTTGAGCTTA) | 0.013 |
| TCGCATTCATGGACCGGTTTTCCCGGTAATCCGTATTTGTC (site TCGCATTCTGA) | 0 |
| ATCCGTCCATGGACCGGTTTTCCCGGTAATCCGTATTTGAT (site ATCCGTCCTAT) | 0.0236 |

| Sequence | recombinant UMI read abundance (log10) |
| --- | --- |
| ACGAAGACATGGACCGGTTTTCCCGGTAATCCGTATTTGCA (site AAGAAGACTTG) | 2.3 |
| CCACACACATGGACCGGTTTTCCCGGTAATCCGTATTTGTA (site CCCCACACTTA) | 0.0104 |
| AGCGCTCCATGGACCGGTTTTCCCGGTAATCCGTATTTGCC (site AGCGCTCCTGG) | 0 |
| CCCTAACCATGGACCGGTTTTCCCGGTAATCCGTATTTGAA (site CCCTAACCTTT) | 0.0156 |
| CGCGGTACATGGACCGGTTTTCCCGGTAATCCGTATTTGCT (site CGCAGTACTAG) | 1.64 |
| AGGAATACATGGACCGGTTTTCCCGGTAATCCGTATTTGCA (site AGGAACACTTG) | 1.48 |
| CCGAATCCATGGACCGGTTTTCCCGGTAATCCGTATTTGTT (site CGGAATCCTAA) | 0 |
| AGGACTGCATGGACCGGTTTTCCCGGTAATCCGTATTTGAG (site AGGACTGCTCT) | 1.79 |
| GGAGTAGCATGGACCGGTTTTCCCGGTAATCCGTATTTGGT (site GGAGTTGCTAC) | 0 |
| TTTGCGACATGGACCGGTTTTCCCGGTAATCCGTATTTGCT (site TTTGCGTCTAG) | 0 |
| ATACGCACATGGACCGGTTTTCCCGGTAATCCGTATTTGTT (site ATACGCACTAA) | 1.29 |
| TAAAGAGCATGGACCGGTTTTCCCGGTAATCCGTATTTGGG (site TAAAGAGCTCC) | 0.356 |
| TGATCATCATGGACCGGTTTTCCCGGTAATCCGTATTTGGT (site CGATCATCTAG) | 0 |
| GACTCTGCATGGACCGGTTTTCCCGGTAATCCGTATTTGCT (site GACTCTGCTAG) | 1.3 |
| GGGAATCCATGGACCGGTTTTCCCGGTAATCCGTATTTGTT (site GGGAATCCTAA) | 0.192 |
| AGCATTACATGGACCGGTTTTCCCGGTAATCCGTATTTGAT (site AGCATTACTAT) | 1.01 |
| CAAGTCCCATGGACCGGTTTTCCCGGTAATCCGTATTTGCT (site CAAGTCCCTAG) | 1.92 |
| AGCAATCCATGGACCGGTTTTCCCGGTAATCCGTATTTGAA (site TGCAATCCTTT) | 0.186 |
| GGATCGACATGGACCGGTTTTCCCGGTAATCCGTATTTGTA (site GGATCGACTTA) | 0.775 |

| Sequence | recombinant UMI read abundance (log10) |
| --- | --- |
| GAACGGCCATGGACCGGTTTTCCCGGTAATCCGTATTTGCA (site GAAAGGCCTTG) | 0 |
| TAAAGTTCATGGACCGGTTTTCCCGGTAATCCGTATTTGTA (site TAAAGTCCTTA) | 0.153 |
| AAGCACGCATGGACCGGTTTTCCCGGTAATCCGTATTTGGG (site AAGCACGCTCG) | 0.00834 |
| CTGCTACCATGGACCGGTTTTCCCGGTAATCCGTATTTGAT (site CTGCTACCTAA) | 0.0178 |
| GTCTACACATGGACCGGTTTTCCCGGTAATCCGTATTTGCT (site ATCTACACTAG) | 1.33 |
| ACTTTGGCATGGACCGGTTTTCCCGGTAATCCGTATTTGTA (site ACTTTGGCTTA) | 1.26 |
| GAACTCACATGGACCGGTTTTCCCGGTAATCCGTATTTGCT (site GAACTCACTAG) | 2.53 |
| ATGAATTCATGGACCGGTTTTCCCGGTAATCCGTATTTGGT (site ATGAATTCTAC) | 2.57 |
| GGAGTCGCATGGACCGGTTTTCCCGGTAATCCGTATTTGCG (site GAAGTCGCTCG) | 0.00287 |
| GGAAGCTCATGGACCGGTTTTCCCGGTAATCCGTATTTGTT (site GGAAGCTCTAA) | 2.26 |
| ATTGTGACATGGACCGGTTTTCCCGGTAATCCGTATTTGCT (site ATTGTGACTAG) | 2.98 |
| GACTTAGCATGGACCGGTTTTCCCGGTAATCCGTATTTGGT (site GACTTAGCTAC) | 0.191 |
| GGATCGTCATGGACCGGTTTTCCCGGTAATCCGTATTTGCT (site GGATCGTCTAG) | 2.28 |
| ACACATCCATGGACCGGTTTTCCCGGTAATCCGTATTTGAC (site ACACCTCCTGT) | 0.91 |
| TGAGTTGCATGGACCGGTTTTCCCGGTAATCCGTATTTGCA (site TGAGTTGCTTG) | 1.47 |
| GGATAGACATGGACCGGTTTTCCCGGTAATCCGTATTTGCC (site GCATAGACTGG) | 2.11 |
| GAACATACATGGACCGGTTTTCCCGGTAATCCGTATTTGAA (site GAACATACTTT) | 1.69 |
| GCAGTCGCATGGACCGGTTTTCCCGGTAATCCGTATTTGCG (site GAAGTCGCTCG) | 0.00976 |
| GTGCATGCATGGACCGGTTTTCCCGGTAATCCGTATTTGGT (site GTGCATTCTAC) | 0 |
